Measured values: patent publication US11377466B2, “Analogs of the natural product icariin” (Whitehead Institute for Biomedical Research, priority 2018, dated 2022)
Where two headings read alike, the source gives them in different places. Blank lines part the entries; values can stand above or below the compound they belong to.

Legend:
H187 cells = assay: Cytotoxicity measured by resazurin, H187; assay type: cell-based; details: Homo sapiens, NCI-H187, 0-10 μM
Method: (§1) A general feature of compounds with promise as viable therapeutics is a lack of toxicity to human cells. To test the icariin analogs for this feature, each analog was assayed against a panel of five human cell lines for cytotoxicity. The five human cell lines represent various tissue types—normalized, untransformed epithelial cells derived from fetal foreskin, neuroblastoma, melanoma, prostate, and lung. A Western blot against PDE5 confirmed that all five cell lines express PDE5 protein (data not shown). Compounds 2-7 were assayed at concentrations ranging from 0-10 μM, ensuring that all compounds remained soluble. […]

[1] = test system: panel of five human cell lines; assay: Cytotoxicity against a panel of five human cell lines (resazurin); assay type: cell-based; details: 2 and 4: two out of five cell lines, 6: three out of five cell lines, 0-10 μM, read-out: IC50 of toxicity in the affected cell lines
Method: as §1

BJHTERT+ cells = assay: Cytotoxicity measured by resazurin, BJHTERT+ (BjH+); assay type: cell-based; details: Homo sapiens, 0-10 μM
Method: as §1

SKMEL-5 cells = assay: Cytotoxicity measured by resazurin, SKMEL-5; assay type: cell-based; details: Homo sapiens, SK-MEL-5, 0-10 μM
Method: as §1

[2] = test system: cavernous smooth muscle cells; details: cavernous smooth muscle cells isolated from icariin-treated mice; cited from earlier work
[3] = biological target: T1, purified recombinant human PDE5 (Homo sapiens, UniProt O76074); assay: In vitro PDE5 inhibition assay (GMP production from cGMP, LC-MS); assay type: biochemical; details: for IC50: cGMP at 1/10 of Km
T1 construct: purchased Abcam AB125581
Method: To evaluate the nine icariin analogs, the IC50 of each analog, icariin, and sildenafil were measured in an in vitro PDE5 inhibition assay, which measures GMP production from cGMP by purified recombinant human PDE5. Table 1 summarizes the IC50 values obtained for the nine icariin analogs tested. Fold improved potency in Table 1 refers to fold change in IC50 compared to icariin.
[…]. […] PDE5 (purified recombinant human PDE5 purchased from Abcam, Product No. AB125581) was added to start the reaction. The reaction was at room temperature until approximately 10-15% of cGMP in uninhibited control reactions was consumed. Keeping cGMP concentration low and staying within a linear reaction ensured that the reaction remained within Michaelis-Menten model assumptions and that the IC50 could be approximated to the inhibition constant or Ki (as substrate concentration decreases, IC50 value approaches Ki value). The reaction was stopped with the addition of 0.1 M hydrochloric acid. The amount of GMP produced was measured by LC-MS.

human PDE5 [4] = biological target: T2, human PDE5 (Homo sapiens, UniProt O76074); details: competitive inhibitor of human PDE5; previous work; cited from earlier work
T2 construct: host or cells: COS-7 cells (lysate), transfected with human PDE5

human PDE5 [5] = biological target: T2, human PDE5; details: reported by Dell'Agli et al.; COS-7 lysate expressing human PDE5; cited from earlier work
[6] = purified recombinant human PDE5

Compound: COc1ccc(-c2oc3c(CC=C(C)C)c(O)cc(O)c3c(=O)c2OCCO)cc1 [Compound 6]
IC50 (H187 cells): 5.92 µM
IC50 [1]: 4 to 7 µM
IC50 (BJHTERT+ cells): 6.73 µM
IC50 (SKMEL-5 cells): 4.45 µM

Compound: COc1ccc(-c2oc3c(CC=C(C)C)c(O[C@@H]4O[C@H](CO)[C@@H](O)[C@H](O)[C@H]4O)cc(O)c3c(=O)c2O[C@@H]2O[C@@H](C)[C@H](O)[C@@H](O)[C@H]2O)cc1 [icariin]
cGMP levels [2]: increase cGMP levels
Field improved potency ([3]; fold change in IC50 compared to icariin): 1
IC50 [3, 6]: 6 ± 1 µM
IC50 (human PDE5 [4]): 1 to 6 µM

Compound: COc1ccc(-c2oc3c(CC=C(C)C)c(O[C@@H]4O[C@H](CO)[C@@H](O)[C@H](O)[C@H]4O)cc(O)c3c(=O)c2OCCO)cc1 [Compound 3]
Ki ([3]; enzyme kinetics, purified recombinant human PDE5): 0.036 ± 0.005 µM
IC50 [3, 6]: 0.083 ± 0.01 µM

Compound: COc1ccc(-c2oc3c(CC=C(C)C)c(O)cc(O)c3c(=O)c2O[C@@H]2O[C@H](C)[C@@H](O)[C@H](O)[C@@H]2O)cc1 [Compound 1, icariside II]
IC50 (human PDE5 [5]): 0.16 µM

Now from value to compound:

IC50 [3, 6]: 0.5 ± 0.1 µM
Compound: COc1ccc(-c2oc3c(CC=C(C)C)c(O[C@@H]4O[C@H](CO)[C@@H](O)[C@H](O)[C@H]4O)cc(O)c3c(=O)c2OCC(C)O)cc1 (stereo partly shown) [Compound 5]

IC50 [3, 6]: 1.8 ± 0.8 µM
Compound: COc1ccc(-c2oc3c(CC=C(C)C)c(O)cc(O)c3c(=O)c2O)cc1 [Compound 9, icaritin]
